Reference: patent US11332464B2, “Inhibitors of lysine gingipain” (priority 2014, dated 2022)
Values joined by “and” are separate entries in the source; they are usually repeats but may differ in a detail not shown here. Identical values can stand only once. “Also recorded” adds a separate entry of the source. Like-named read-outs stand apart in the source and are kept apart here.

What was measured:
Kgp = Kgp (Porphyromonas gingivalis, UniProt P72197); test: Lysine gingipain (Kgp) fluorogenic inhibition assay; format: biochemical
Protocol: The capacities of compounds of the present invention to inhibit the activity of lysine gingipain were measured in a fluorogenic assay similar to those described in Barret Biochemical Journal. 1980, 187(3), 909. The specific assay conditions were as follows. Buffer: pH=7.5, 100 mM Tris-HCl, 75 mM NaCl, 2.5 mM CaCl2, 10 mM cysteine, 1% DMSO after all additions. Protein: 0.1 nM Kgp, isolated from culture of Porphyromonas gingivalis, as described in Pike et al. J. Biol. Chem. 1994, 269(1), 406, and Potempa and Nguyen. Current Protocols in Protein Science. 2007, 21.20.1-21.20.27. Fluorogenic substrate: 10 uM Z-His-Glu-Lys-MCA. Time=90 minutes. Temperature=37° C. Each compound: 10 concentrations, starting at either 100 uM or 100 nM, with lower concentrations generated by serial 3-fold dilutions. By testing a range of concentrations for each compound, the concentration required to inhibit the activity of lysine gingipain by 50% (the “IC50”) was determined. Under the described assay conditions, signal-to-noise was excellent, and Z factor was greater than 0.6.

[1] = system: differentiated SH-SY5Y neuroblastoma cells; test: Gingipain-induced death of differentiated SH-SY5Y cells; format: cell-based; conditions: 100 nM Kgp and/or RgpB for 24 hours
Protocol: SH-SY5Y neuroblastoma cells were cultured and differentiated in the presence of 5 uM retinoic acid based on established methods [Saberi S., et al. Cell Mol Neurobiol 2013. 33: 747-751]. Differentiation into neuronal cells was verified by observation of neurite outgrowth. The differentiated cells were exposed to 100 nM Kgp and/or RgpB for 24 hours, in the presence or absence of Kgp inhibitors. Results were recorded using a digital microscope camera (FIG. 1C, FIG. 2C). Gingipains are toxic to cells while COR compounds prevent the cytotoxicity.

SHSY5Y cells = test: P. gingivalis-induced toxicity in SHSY5Y cells; format: cell-based; conditions: in vitro, compared to moxifloxacin
[2] = Kgp IC50 average, 0.1 nM Kgp, 10 uM Z-His-Glu-Lys-MCA, 90 minutes, 37° C.
[3] = read-out: Kgp IC50 average, 0.1 nM Kgp, 10 uM Z-His-Glu-Lys-MCA, 90 minutes, 37° C.

SMILES	IC50 (Kgp; [2])	also measured
NCCCCC(NC(=O)[C@@H]1CCCN(C(=O)CCc2ccccc2)C1)C(=O)c1nc2ccccc2s1 (single isomer, unassigned) [Compound 14]	0.001 to 0.01 µM	–
NCCCCC(NC(=O)[C@@H]1CCCN(C(=O)CCc2ccccc2)C1)C(=O)c1nc2ccccc2s1 (single isomer, unassigned) [Compound 15]	–	IC50 (Kgp; [3]): 0.001 to 0.01 µM
NCCCC[C@H](NC(=O)C1CCCOC1)C(=O)c1nc2ccccc2s1 (single isomer, unassigned) [Compound 18]	0.01 to 0.025 µM	–
NCCCC[C@H](NC(=O)C1CCCOC1)C(=O)c1nc2ccccc2s1 (single isomer, unassigned) [Compound 19]	–	IC50 (Kgp; [3]): 0.01 to 0.025 µM
NCCCC[C@H](NC(=O)C1CCCCO1)C(=O)c1nc2ccccc2s1 (single isomer, unassigned) [Compound 25]	0.025 to 0.05 µM	–
NCCCC[C@H](NC(=O)C1CCCCO1)C(=O)c1nc2ccccc2s1 (single isomer, unassigned) [Compound 26]	–	IC50 (Kgp; [3]): 0.025 to 0.05 µM
NCCCC[C@H](NC(=O)C1CCCO1)C(=O)c1nc2ccccc2s1 (single isomer, unassigned) [Compound 34]	0.001 to 0.01 µM	–
NCCCC[C@H](NC(=O)C1CCCO1)C(=O)c1nc2ccccc2s1 (single isomer, unassigned) [Compound 35]	–	IC50 (Kgp; [3]): 0.001 to 0.01 µM
NCCCC[C@H](NC(=O)c1ccccc1)C(=O)c1nc2ccccc2s1 [Compound 1, N-[(1S)-5-amino-1-(1,3-benzothiazole-2-carbonyl)pentyl]benzamide]	0.05 to 0.1 µM and 0.025 to 0.05 µM	prevention of gingipain-induced death of differentiated SHSY-5Y cells [1]: effective at preventing cell death; also recorded: prevents gingipain-induced death
NCCCC[C@H](NC(=O)C1CCCCC1)C(=O)c1nc2ccccc2s1 [Compound 2, N-[(1S)-5-amino-1-(1,3-benzothiazole-2-carbonyl)pentyl]cyclohexanecarboxamide]	0.001 to 0.01 µM and 0.01 to 0.025 µM	prevention of gingipain-induced death of differentiated SHSY-5Y cells [1]: effective at preventing cell death; also recorded: more effective; IC50 (Kgp; Kgp IC50, figure legend): 0.001 to 0.01 µM
NCCCC[C@H](NC(=O)[C@H]1CCCN(C(=O)CCc2ccccc2)C1)C(=O)c1nc2ccccc2s1 [Compound 3, (3S)—N-[(1S)-5-amino-1-(1,3-benzothiazole-2-carbonyl)pentyl]-1-(3-phenylpropanoyl)piperidine-3-carboxamide]	0.01 to 0.025 µM	prevention of gingipain-induced death of differentiated SHSY-5Y cells [1]: does not; IC50 (Kgp; Kgp IC50, figure legend): 0.01 to 0.025 µM
NCCCC[C@H](NC(=O)[C@@H]1CCCN(C(=O)CCc2ccccc2)C1)C(=O)c1nc2ccccc2s1 [Compound 4, (3R)—N-[(1S)-5-amino-1-(1,3-benzothiazole-2-carbonyl)pentyl]-1-(3-phenylpropanoyl)piperidine-3-carboxamide]	0.001 to 0.01 µM	prevention of gingipain-induced death of differentiated SHSY-5Y cells [1]: prevents gingipain-induced death; prevention of gingipain-induced death of differentiated SHSY-5Y cells ([1]; listed as 2-(N—[N-(3-phenylpropanoyl)-(R)-nipecotinyl]-(R)-lysinyl)-benzothiazole): effective at preventing cell death; IC50 (Kgp; Kgp IC50, figure legend): 0.001 to 0.01 µM
NCCCC[C@H](NC(=O)c1ccccc1C(F)(F)F)C(=O)c1nc2ccccc2s1 [Compound 7, N-[(1S)-5-amino-1-(1,3-benzothiazole-2-carbonyl)pentyl]-2-(trifluoromethyl)benzamide]	0.025 to 0.05 µM	–
CC(=O)N1CCC[C@H](C(=O)N[C@@H](CCCCN)C(=O)c2nc3ccccc3s2)C1 [Compound 8, (3S)-1-acetyl-N-[(1S)-5-amino-1-(1,3-benzothiazole-2-carbonyl)pentyl]piperidine-3-carboxamide]	0.01 to 0.025 µM	–
CC(=O)N1CCC[C@@H](C(=O)N[C@@H](CCCCN)C(=O)c2nc3ccccc3s2)C1 [Compound 9, (3R)-1-acetyl-N-[(1S)-5-amino-1-(1,3-benzothiazole-2-carbonyl)pentyl]piperidine-3-carboxamide]	0.001 to 0.01 µM	–
CC(=O)N1CCC[C@H](C(=O)N[C@H](CCCCN)C(=O)c2nc3ccccc3s2)C1 [Compound 10, (3S)-1-acetyl-N-[(1R)-5-amino-1-(1,3-benzothiazole-2-carbonyl)pentyl]piperidine-3-carboxamide]	0.01 to 0.025 µM	–
CC(=O)N1CCC[C@@H](C(=O)N[C@H](CCCCN)C(=O)c2nc3ccccc3s2)C1 [Compound 11, (3R)-1-acetyl-N-[(1R)-5-amino-1-(1,3-benzothiazole-2-carbonyl)pentyl]piperidine-3-carboxamide]	0.001 to 0.01 µM	–

SMILES	IC50 (Kgp; [2])	also measured
NCCCC[C@H](NC(=O)c1ccccn1)C(=O)c1nc2ccccc2s1 [Compound 12, N-[(1S)-5-amino-1-(1,3-benzothiazole-2-carbonyl)pentyl]pyridine-2-carboxamide]	0.05 to 0.1 µM	–
NCCCC[C@H](NC(=O)c1ccncc1)C(=O)c1nc2ccccc2s1 [Compound 13, N-[(1S)-5-amino-1-(1,3-benzothiazole-2-carbonyl)pentyl]pyridine-4-carboxamide]	0.025 to 0.05 µM	–
NCCCC[C@H](NC(=O)C1CCOCC1)C(=O)c1nc2ccccc2s1 [Compound 22, N-[(1S)-5-amino-1-(1,3-benzothiazole-2-carbonyl)pentyl]tetrahydropyran-4-carboxamide]	0.01 to 0.025 µM	–
NCCCC[C@H](NC(=O)OCc1ccccc1)C(=O)c1nc2ccccc2s1 [Compound 23, Benzyl-N-[(1S)-5-amino-1-(1,3-benzothiazole-2-carbonyl)pentyl]carbamate]	0.1 to 0.25 µM	–
NCCCC[C@H](NC(=O)C1CCCC1)C(=O)c1nc2ccccc2s1 [Compound 24, N-[(1S)-5-amino-1-(1,3-benzothiazole-2-carbonyl)pentyl]cyclo-pentanecarboxamide]	0.001 to 0.01 µM	–
CC(=O)N1CCOC(C(=O)N[C@@H](CCCCN)C(=O)c2nc3ccccc3s2)C1 (stereo partly drawn) [Compound 29, 4-acetyl-N-[(1S)-5-amino-1-(1,3-benzothiazole-2-carbonyl)pentyl]morpholine-2-carboxamide]	0.01 to 0.025 µM	–
NCCCC[C@H](NC(=O)c1cccnc1)C(=O)c1nc2ccccc2s1 [Compound 30, N-[(1S)-5-amino-1-(1,3-benzothiazole-2-carbonyl)pentyl]pyridine-3-carboxamide]	0.025 to 0.05 µM	–
NCCCC[C@H](NC(=O)C1CCCc2ccccc21)C(=O)c1nc2ccccc2s1 (stereo partly drawn) [Compound 31, N-[(1S)-5-amino-1-(1,3-benzothiazole-2-carbonyl)pentyl]tetralin-1-carboxamide]	0.01 to 0.025 µM	–
NCCCC[C@H](NC(=O)C1CCc2ccccc2C1)C(=O)c1nc2ccccc2s1 (stereo partly drawn) [Compound 32, N-[(1S)-5-amino-1-(1,3-benzothiazole-2-carbonyl)pentyl]tetralin-2-carboxamide]	0.001 to 0.01 µM	–
CC1(C(=O)N[C@@H](CCCCN)C(=O)c2nc3ccccc3s2)CCCCC1 [Compound 33, N-[(1S)-5-amino-1-(1,3-benzothiazole-2-carbonyl)pentyl]-1-methyl-cyclohexanecarboxamide]	0.001 to 0.01 µM	–
NCCCC[C@H](NC(=O)c1cncs1)C(=O)c1nc2ccccc2s1 [Compound 38, N-[(1S)-5-amino-1-(1,3-benzothiazole-2-carbonyl)pentyl]thiazole-5-carboxamide]	0.01 to 0.025 µM	–
NCCCC[C@H](NC(=O)c1nccs1)C(=O)c1nc2ccccc2s1 [Compound 39, N-[(1S)-5-amino-1-(1,3-benzothiazole-2-carbonyl)pentyl]thiazole-2-carboxamide]	0.05 to 0.1 µM	–
NCCCC[C@H](NC(=O)c1cccc(=O)[nH]1)C(=O)c1nc2ccccc2s1 [Compound 40, N-[(1S)-5-amino-1-(1,3-benzothiazole-2-carbonyl)pentyl]-6-oxo-1H-pyridine-2-carboxamide]	0.025 to 0.05 µM	–
COC1(C(=O)N[C@@H](CCCCN)C(=O)c2nc3ccccc3s2)CCCCC1 [Compound 41, (S)—N-(6-amino-1-(benzo[d]thiazol-2-yl)-1-oxohexan-2-yl)-1-methoxycyclohexanecarboxamide]	0.01 to 0.025 µM	–
NCCCC[C@H](NC(=O)C1CCCC1)C(=O)c1nccs1 [Compound 42, N-[(1S)-5-amino-1-(thiazole-2-carbonyl)pentyl]cyclopentanecarboxamide]	0.05 to 0.1 µM	–
NCCCC[C@H](NC(=O)C1CCCC1)C(=O)COc1c(F)c(F)cc(F)c1F [Compound 43, N-[(1S)-5-amino-1-[2-(2,3,5,6-tetrafluorophenoxy)acetyl]pentyl]cyclo-pentanecarboxamide]	< 0.001 µM	protection of SHSY5Y cells from P. gingivalis-induced toxicity (SHSY5Y cells): protects SHSY5Y cells; Kgp IC50 (in words) (Kgp; irreversible covalent inhibitor): sub-nanomolar
NCCCC[C@H](NC(=O)C1CCCC1)C(=O)c1ccccn1 [Compound 44, N-[(1S)-5-amino-1-(pyridine-2-carbonyl)pentyl]cyclopentanecarboxamide]	> 0.25 µM	–
